1 molecule from US20250382588A1, “CHIMERIC AAV AND USES THEREOF” (priority 2023, published 2025) can be followed below.

Experiment [1] is described as follows: Rotation behavior after nigral EYFP control AAV and CNO. Type of experiment: in vivo, mice. The conditions noted are these: for rotation behavior (FIG. 6C): AAV8R12-G88P3-EYFP; for rotation behavior (FIG. 6C) / rotation behavior (FIG. 7C): n=5; for rotation behavior (FIG. 7C): AAV8R12-G88P7-EYFP. As to the method:
Mice were anesthetized with sodium pentobarbital (Nembutal; 80 mg/kg, i.p.), and then placed into a stereotaxic device (KOPF). Eye cream was applied on both corneas to avoid dehydration. The skull above the targeted areas was thinned with a dental drill and carefully removed. Injections were conducted with a 10 μL syringe connected to a 33-Gauge needle (Neuros; Hamilton), using a microsyringe pump (Legato 130, KD Scientific). A total volume of 200 nL virus was injected into the SNr at a speed of 20 nL/min. The coordinates for the SNr were 3.4 mm posterior, 1.3 mm lateral, 4.8 mm ventral to the bregma.
Mice that were used in the behavioral experiments were then implanted with guide cannulas (KOPF) unilaterally aiming at the dorsomedial striatum (0.5 mm anterior, 1.5 mm lateral, 3.5 mm ventral to the bregma). The cannulas were fixed to the skull with dental cement. Stainless steel obturators were inserted into the guide cannulas and were replaced every other day to maintain the patency until infusions were made. Mice were allowed to recover from the surgery for at least 3 weeks before further studies.
Mice were individually handled for 10-20 seconds per day for at least 5 days to habituate them to the experimenter. The open field test was conducted in a test apparatus (50 cm×50 cm×50 cm) with an HD digital camera (Sony) positioned above the arena. On day one, mice were habituated to the apparatus for 10 minutes. On day 2, mice were administrated saline (0.1 mL i.p. or 200 nL intracranially [i.c.] through the guide cannulas). On day 3, mice were administrated with Clozapine-N-oxide (CNO, Hello Bio, HB1807; 0.3 mg/kg i.p. or 200 nL at 100 μM i.e.). All behavioral tests were conducted 30 minutes after injection. During the test, mice were allowed to freely explore the apparatus for 10 minutes. The behavioral data were analyzed with ANY-maze software (Stoelting Co.).

Experiment [2] can be described thus: Locomotion test in naive macaques after CNO. In kind it is in vivo. As to the method: The locomotion tests for monkeys were conducted in a custom-made observation cage (100 cm×100 cm×100 cm). The top and front of the cage were made of toughened glass in order to gain a clear view for behavioral recording. Monkeys were habituated to the observation cage by placing them inside for 30 minutes on three separate days.
For monkeys injected with AAV8R12-G88P3-HA-hM3Dq, CNO was intracranially infused into the dorsomedial caudate through the recording chamber. To infuse while the animal was awake, the monkey was trained to sit in a primate chair specially designed with its head fixed to the primate chair by a mask made of thermoplastic materials. Injections were conducted through a 33-Gauge needle connected to a 250 μL syringe via a polyethylene pipe (Hamilton, Neuros). […] The needle was held for 5 minutes for drug diffusion before retraction. […] Videos capturing the subjects' behavior were recorded for at least 90 minutes. Animal behaviors from 30-90 minutes after saline/CNO infusion were further analyzed and quantified.
For rotation analysis, only movements that occurred lower than 30 cm on the z-axis were counted. To determine the direction of the rotation, we first computed the center for the rotation data in the x-y plane as (x0, y0) by averaging all data points, and then we computed the angle relative to (x0, y0) for each time point by the following formula:
where θi represents the rotating angle at time i, and (xi, yi) represents the x-y coordinate at time i. We then calculated the change of rotating angle as Δθi=θi−θi-1. For right nigral injections, when Δθ<0, the direction of the rotation was anticlockwise and was labeled as a contraversive rotation. When Δθ>0, the direction of the rotation was clockwise and was labeled as an ipsiversive rotation. The raw data were analyzed and plotted through a custom R package. Code is available on Github (github.com/chenyef/PD_ana/blob/main/Behavior_ana.txt).

The next experiment has as its target T1, rM3Ds (Rattus norvegicus, UniProt P08483, A177S/A238G/A489L/DEL261-437/DEL441-478/E258S/I253V/I483M/INS256[…]/K178L/K182A/K255R/K484R/K486H/L173F/L482A/M480V/R171S/R176Q/R179M/S481M/T174R/T181R/T257A/Y148C).
T1 sequence (P08483 with tags, fused parts or gaps Y148C/R171S/L173F/T174R/R176Q/A177S/K178L/R179M/T181R/K182A/A238G/I253V/K255R/INS256[…]/T257A/E258S/DEL261-437/DEL441-478/M480V/S481M/L482A/I483M/K484R/K486H/A489L): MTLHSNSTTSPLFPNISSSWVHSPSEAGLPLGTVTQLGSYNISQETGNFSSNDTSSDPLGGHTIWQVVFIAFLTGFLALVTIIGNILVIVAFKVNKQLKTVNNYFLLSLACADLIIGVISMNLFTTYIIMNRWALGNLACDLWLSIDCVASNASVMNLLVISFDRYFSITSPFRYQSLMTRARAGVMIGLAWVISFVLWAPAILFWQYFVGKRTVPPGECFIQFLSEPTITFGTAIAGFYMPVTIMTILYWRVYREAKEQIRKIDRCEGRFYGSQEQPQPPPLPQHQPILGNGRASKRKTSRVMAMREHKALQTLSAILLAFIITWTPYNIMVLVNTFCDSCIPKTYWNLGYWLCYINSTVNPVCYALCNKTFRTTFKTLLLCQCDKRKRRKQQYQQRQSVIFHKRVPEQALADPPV
Put plainly: Electrophysiological recording in caudate/putamen of MPP+ lesioned macaques after CNO or DCZ. In kind it is in vivo. As to the method:
Intriguingly, many of the symptoms were greatly reversed after systemic deschloroclozapine (DCZ) administration. DCZ is a potent brain-penetrable agonist for rM3Ds with reduced off-targeting binding compared to CNO, and was administered to activate the DREADD system in the macaque brain.
Electrophysiological recording was performed through a recording chamber while the monkey was anesthetized. Neural responses were recorded by a 16-channel linear probe (Plexon Inc, Uprobe) driven by a mechanical microdrive (Alpha Omega, FlexMT). Signals were passed through a head stage (Plexon Inc, HST/16V-G20 LN) and then split and filtered between 300 Hz and 5 kHz to identify spiking activity with an amplifier system (Plexon Inc, OmniPlex). Detected spikes were then sorted by commercially available software (Plexon Inc, Offline Sorter) for further analysis. To quantify the effect of CNO/DCZ injection, neural activity was recorded for 60 minutes following CNO/DCZ injection. The response time-course for each channel was obtained by counting the spikes within every 10-minute window and then normalizing to the maximal.
To determine the effect of CNO/DCZ injection on the direction of signal change, we performed Pearson correlation between neural responses and time using the ‘corr’ function in Matlab, which generates the correlation coefficient ‘r’ and significant level ‘p’. A neuron was considered to have “Increased” activity when r>0 and p<[…]; and considered to have “Decreased” activity when r<0 and p<0.05. Otherwise, neurons were considered to be “Unchanged” in their neural activities. The responses of all increased neurons were then averaged after being normalized by the maximal response (Crowe et al., 2014; Dai and Wang, 2018; Hirokawa et al., 2019) following CNO/DCZ injection, and then plotted as a function of time to generate the normalized population response.

Where [3] appears, read: caudate/putamen, CNO 36 cells, DCZ 31 cells.

With `C[N+]1([O-])CCN(C2=Nc3cc(Cl)ccc3Nc3ccccc32)CC1` [CNO, clozapine N-oxide], in experiment [1] (CNO i.p.), the “rotation behavior (FIG. 6C)” value came to 44.72±10.89 and the “rotation behavior (FIG. 7C)” value came out at 46.88±7.497. Moreover, in experiment [1] (CNO intracranial), the “rotation behavior (FIG. 6C)” value was 61.39±5.774 and the “rotation behavior (FIG. 7C)” value amounted to 34.55±7.536. Moreover, in experiment [1] (animals that received the EYFP control vector named at the place), the “rotational behaviors, in words” value is recorded as “didn't induce rotational behaviors”. For the same molecule, in experiment [2] (naive macaques, n=3), the “immobile time (FIG. 11E)” value came out at 149.8±22.65; the “percentage of contraversive and ipsiversive rotation (FIG. 11C)” value is reported as 0.8384±0.4152; the “speed of contraversive rotations (FIG. 11G)” value is 39.63±7.092; the “speed of ipsiversive rotations (FIG. 11H)” value is 42.79±4.705. For the same molecule, in experiment [2] (naive macaques, n=3), the “time spending in the higher portion of the observing cages (FIG. 11D)” value was 60.43±4.542 and the “total distance (FIG. 11F)” value was determined as 59.48±18.65. In addition, in experiment [2] (no viral injections), the “behavioral changes in naïve monkeys, in words” value is “did not induce significant behavioral changes”. Further, at rM3Ds (anesthetized animals), the “neuronal activity in MPP+ lesioned macaques, in words” value is “induced an increase in neuronal activity”. Moreover, at rM3Ds (setting [3]), the “cells activated (FIG. 15G)” value is 52.8%, the “cells inactivated (FIG. 15G)” value worked out at 13.9% and the “cells unchanged (FIG. 15G)” value was 33.3%.
